Reference: publication PMC5218480 (PLoS ONE, 2017)

System: MV-4-11 cells
Test: Gene expression microarray analysis (Affymetrix PrimeView) and GSEA
Format: cell-based, human
Set-up: RFU PODN (11730768_x_at) / Fold change /veh PODN (11730768_x_at) / RFU LINC00158 (11744669_a_at) / Fold change /veh LINC00158 (11744669_a_at) / RFU DUSP10 (11751237_a_at) / Fold change /veh DUSP10 (11751237_a_at) / RFU ID3 (11757404_x_at) / Fold change /veh ID3 (11757404_x_at) / RFU PLEKHG5 (11737974_s_at) / Fold change /veh PLEKHG5 (11737974_s_at) / RFU LRRC4B (11730491_at) / Fold change /veh LRRC4B (11730491_at) / RFU GIMAP4 (11747438_a_at) / Fold change /veh GIMAP4 (11747438_a_at) / RFU KRT8 (11758183_x_at) / Fold change /veh KRT8 (11758183_x_at) / RFU CNN1 (11734310_a_at) / Fold change /veh CNN1 (11734310_a_at) / RFU VPS37D (11726825_at) / Fold change /veh VPS37D (11726825_at) / RFU C10orf10 (11716522_x_at) / Fold change /veh C10orf10 (11716522_x_at) / RFU KIR2DL2 /// KIR2DL4 /// KIR2DL5A /// KIR2DL5B /// KIR2DS1 /// KIR2DS2 /// KIR2DS3 /// KIR2DS4 /// KIR3DL3 /// KIR3DL3 /// KIR3DS1 (11738374_at) / Fold change /veh KIR2DL2 /// KIR2DL4 /// KIR2DL5A /// KIR2DL5B /// KIR2DS1 /// KIR2DS2 /// KIR2DS3 /// KIR2DS4 /// KIR3DL3 /// KIR3DL3 /// KIR3DS1 (11738374_at) / RFU C1QL1 (11718748_at) / Fold change /veh C1QL1 (11718748_at) / RFU TMPRSS4 (11747572_a_at) / Fold change /veh TMPRSS4 (11747572_a_at) / RFU HAMP (11756126_x_at) / Fold change /veh HAMP (11756126_x_at) / RFU RNFT2 (11725882_a_at) / Fold change /veh RNFT2 (11725882_a_at) / RFU NR4A2 (11747474_a_at) / Fold change /veh NR4A2 (11747474_a_at) / RFU ABCC12 (11746883_a_at) / Fold change /veh ABCC12 (11746883_a_at) / RFU TMEM136 (11760407_x_at) / Fold change /veh TMEM136 (11760407_x_at) / RFU CLDN22 /// WWC2 (11732394_at) / Fold change /veh CLDN22 /// WWC2 (11732394_at) / RFU HLA-DPB1 (11760878_x_at) / Fold change /veh HLA-DPB1 (11760878_x_at) / RFU SPINT1 (11716480_a_at) / Fold change /veh SPINT1 (11716480_a_at) / RFU GAP43 (11754022_s_at) / Fold change /veh GAP43 (11754022_s_at) / RFU A4GNT (11735810_at) / Fold change /veh A4GNT (11735810_at) / RFU PRB3 (11715151_x_at) / Fold change /veh PRB3 (11715151_x_at) / RFU TUBB4B (11761932_at) / Fold change /veh TUBB4B (11761932_at) / RFU CAPN14 (11732068_a_at) / Fold change /veh CAPN14 (11732068_a_at) / RFU TMCC2 (11721928_a_at) / Fold change /veh TMCC2 (11721928_a_at) / RFU IRGQ (11745062_a_at) / Fold change /veh IRGQ (11745062_a_at) / RFU FAM174B (11720279_a_at) / Fold change /veh FAM174B (11720279_a_at) / RFU TMPRSS4 (11748680_a_at) / Fold change /veh TMPRSS4 (11748680_a_at) / RFU FAM212B (11763350_a_at) / Fold change /veh FAM212B (11763350_a_at) / RFU PLEKHG5 (11743358_a_at) / Fold change /veh PLEKHG5 (11743358_a_at) / RFU ZSCAN30 (11745921_a_at) / Fold change /veh ZSCAN30 (11745921_a_at) / RFU CMKLR1 (11741424_a_at) / Fold change /veh CMKLR1 (11741424_a_at) / RFU LOC101060620 /// MAPK8IP1 (11723275_at) / Fold change /veh LOC101060620 /// MAPK8IP1 (11723275_at) / RFU SPTSSB (11747773_x_at) / Fold change /veh SPTSSB (11747773_x_at) / RFU PRSS12 (11739890_at) / Fold change /veh PRSS12 (11739890_at) / RFU BIN1 (11741810_x_at) / Fold change /veh BIN1 (11741810_x_at) / RFU WNT11 (11732464_a_at) / Fold change /veh WNT11 (11732464_a_at) / RFU C10orf10 (11716521_a_at) / Fold change /veh C10orf10 (11716521_a_at) / RFU C5orf56 (11738089_at) / Fold change /veh C5orf56 (11738089_at) / RFU CYB561 (11721691_x_at) / Fold change /veh CYB561 (11721691_x_at) / RFU ANKRD19P (11752326_a_at) / Fold change /veh ANKRD19P (11752326_a_at) / RFU OR2T12 /// OR2T33 /// OR2T8 (11738714_s_at) / Fold change /veh OR2T12 /// OR2T33 /// OR2T8 (11738714_s_at) / RFU VCAN (11748164_a_at) / Fold change /veh VCAN (11748164_a_at) / RFU JSRP1 (11732532_at) / Fold change /veh JSRP1 (11732532_at) / RFU KRTAP10-11 (11738290_x_at) / Fold change /veh KRTAP10-11 (11738290_x_at) / RFU MYO3A (11730013_a_at) / Fold change /veh MYO3A (11730013_a_at) / RFU EBF3 (11725865_a_at) / Fold change /veh EBF3 (11725865_a_at) / RFU CAMK2N1 (11719241_x_at) / Fold change /veh CAMK2N1 (11719241_x_at) / RFU C5orf56 (11738088_a_at) / Fold change /veh C5orf56 (11738088_a_at) / RFU OLFML3 (11715873_a_at) / Fold change /veh OLFML3 (11715873_a_at) / RFU LOC100653217 /// NTM (11731650_a_at) / Fold change /veh LOC100653217 /// NTM (11731650_a_at) / RFU MAPK11 (11762145_a_at) / Fold change /veh MAPK11 (11762145_a_at) / RFU FIZ1 (11724087_x_at) / Fold change /veh FIZ1 (11724087_x_at) / RFU OASL (11726364_x_at) / Fold change /veh OASL (11726364_x_at) / RFU SOX15 (11748057_x_at) / Fold change /veh SOX15 (11748057_x_at) / RFU CD79A (11719716_a_at) / Fold change /veh CD79A (11719716_a_at) / RFU HIST1H1D (11736915_at) / Fold change /veh HIST1H1D (11736915_at) / RFU CASKIN2 (11723855_a_at) / Fold change /veh CASKIN2 (11723855_a_at) / RFU LOC730098 (11760151_x_at) / Fold change /veh LOC730098 (11760151_x_at) / RFU OR4N2 (11742367_at) / Fold change /veh OR4N2 (11742367_at) / RFU PRRT2 (11749266_a_at) / Fold change /veh PRRT2 (11749266_a_at) / RFU SNX32 (11753110_a_at) / Fold change /veh SNX32 (11753110_a_at) / RFU CDHR5 (11726645_a_at) / Fold change /veh CDHR5 (11726645_a_at) / RFU RCAN1 (11760418_a_at) / Fold change /veh RCAN1 (11760418_a_at) / RFU FAM167A (11723789_a_at) / Fold change /veh FAM167A (11723789_a_at) / RFU FAM26E (11764081_at) / Fold change /veh FAM26E (11764081_at) / RFU ISYNA1 (11749810_s_at) / Fold change /veh ISYNA1 (11749810_s_at) / RFU ACY1 (11761880_at) / Fold change /veh ACY1 (11761880_at) / RFU 11764098_at / Fold change /veh 11764098_at / RFU SAMD14 (11745864_x_at) / Fold change /veh SAMD14 (11745864_x_at) / RFU NPB (11741838_a_at) / Fold change /veh NPB (11741838_a_at) / RFU TMPRSS6 (11731388_a_at) / Fold change /veh TMPRSS6 (11731388_a_at) / RFU KRTAP10-2 (11738614_at) / Fold change /veh KRTAP10-2 (11738614_at) / RFU ARHGAP8 /// PRR5-ARHGAP8 (11727945_x_at) / Fold change /veh ARHGAP8 /// PRR5-ARHGAP8 (11727945_x_at) / RFU KRTAP5-7 /// NADSYN1 (11734609_at) / Fold change /veh KRTAP5-7 /// NADSYN1 (11734609_at) / RFU RASL12 (11751679_a_at) / Fold change /veh RASL12 (11751679_a_at) / RFU CDKN2B (11736163_a_at) / Fold change /veh CDKN2B (11736163_a_at) / RFU PRF1 (11729649_at) / Fold change /veh PRF1 (11729649_at) / RFU, ZNF638 /// ZNF638-IT1 / Fold change vs veh, ZNF638 /// ZNF638-IT1 / RFU, PANK3 / Fold change vs veh, PANK3 / RFU, SH3YL1 / Fold change vs veh, SH3YL1 / RFU, ZEB2 / Fold change vs veh, ZEB2 / RFU, NRIP1 / Fold change vs veh, NRIP1 / RFU, PTTG1IP / Fold change vs veh, PTTG1IP / RFU, CAPN2 / Fold change vs veh, CAPN2 / RFU, MED14 / Fold change vs veh, MED14 / RFU, SNORA58 / Fold change vs veh, SNORA58 / RFU, C1orf63 / Fold change vs veh, C1orf63 / RFU, LRRFIP1 / Fold change vs veh, LRRFIP1 / RFU, NDUFAF7 / Fold change vs veh, NDUFAF7 / RFU, SLC12A2 / Fold change vs veh, SLC12A2 / RFU, IBTK / Fold change vs veh, IBTK / RFU, ESF1 / Fold change vs veh, ESF1 / Fold change vs veh, TMEM50B / RFU, TAOK1 / Fold change vs veh, TAOK1 / RFU, ACBD3 / Fold change vs veh, ACBD3 / RFU, TMA16 / Fold change vs veh, TMA16 / RFU, RWDD3 / Fold change vs veh, RWDD3 / RFU, BCAT1 / Fold change vs veh, BCAT1 / RFU, EDEM3 / Fold change vs veh, EDEM3 / RFU, TMEM33 / Fold change vs veh, TMEM33 / RFU, WDR75 / Fold change vs veh, WDR75 / RFU, AHCTF1 / Fold change vs veh, AHCTF1 / RFU, TFRC / Fold change vs veh, TFRC / RFU, ZDHHC17 / Fold change vs veh, ZDHHC17 / RFU, NOM1 / Fold change vs veh, NOM1 / RFU, ARL8B / Fold change vs veh, ARL8B / RFU, ZBTB11 / Fold change vs veh, ZBTB11 / RFU, TAMM41 / Fold change vs veh, TAMM41 / RFU, KIAA1704 /// LOC100996395 / Fold change vs veh, KIAA1704 /// LOC100996395 / RFU, ING1 / Fold change vs veh, ING1 / RFU, TRMT61B / Fold change vs veh, TRMT61B / RFU, FUBP3 / Fold change vs veh, FUBP3 / RFU, TP53 / Fold change vs veh, TP53 / RFU, TNKS2 / Fold change vs veh, TNKS2 / RFU, ZFP14 / Fold change vs veh, ZFP14 / RFU, ACTR2 / Fold change vs veh, ACTR2 / RFU, PPP3R1 / Fold change vs veh, PPP3R1 / RFU, PIK3R1 / Fold change vs veh, PIK3R1 / RFU, HNRNPA1 / Fold change vs veh, HNRNPA1 / RFU, RNF170 / Fold change vs veh, RNF170 / RFU, ZNF28 / Fold change vs veh, ZNF28 / RFU, RNGTT / Fold change vs veh, RNGTT / RFU, OGT / Fold change vs veh, OGT / RFU, BRD1 / Fold change vs veh, BRD1 / RFU, MARS / Fold change vs veh, MARS / RFU, ZNF655 / Fold change vs veh, ZNF655 / RFU, FAHD1 / Fold change vs veh, FAHD1 / RFU, BDP1 / Fold change vs veh, BDP1 / RFU, LRRCC1 / Fold change vs veh, LRRCC1 / RFU, ARID1A / Fold change vs veh, ARID1A / RFU, ZNF146 / Fold change vs veh, ZNF146 / RFU, ZNF330 / Fold change vs veh, ZNF330 / RFU, GPN3 / Fold change vs veh, GPN3 / RFU, C9orf123 / Fold change vs veh, C9orf123 / RFU, N4BP2L2 / Fold change vs veh, N4BP2L2 / RFU, ARFIP1 / Fold change vs veh, ARFIP1 / RFU, FAM179B / Fold change vs veh, FAM179B / RFU, BCL10 / Fold change vs veh, BCL10 / RFU, UHRF1BP1L / Fold change vs veh, UHRF1BP1L / RFU, BET1 / Fold change vs veh, BET1 / RFU, CNOT2 / Fold change vs veh, CNOT2 / RFU, ZNF268 / Fold change vs veh, ZNF268 / Fold change vs veh, ZNF507 / RFU, DGCR2 / Fold change vs veh, DGCR2 / RFU, WDSUB1 / Fold change vs veh, WDSUB1 / Fold change vs veh, HSP90B1 /// MIR3652 / RFU, ADSS / Fold change vs veh, ADSS / RFU, GK / Fold change vs veh, GK / RFU, ZNF148 / Fold change vs veh, ZNF148 / RFU, TAF9 / Fold change vs veh, TAF9 / RFU, SLC1A5 / Fold change vs veh, SLC1A5 / RFU, SLMO2 / Fold change vs veh, SLMO2 / RFU, ABCC4 / Fold change vs veh, ABCC4 / RFU, LOC101060439 /// RAP1B / Fold change vs veh, LOC101060439 /// RAP1B / RFU, RFX7 / Fold change vs veh, RFX7 / RFU, GTPBP10 / Fold change vs veh, GTPBP10 / RFU, CNEP1R1 / Fold change vs veh, CNEP1R1 / RFU, BIVM-ERCC5 /// ERCC5 / Fold change vs veh, BIVM-ERCC5 /// ERCC5 / RFU, ILF3 / Fold change vs veh, ILF3 / RFU 11762660_at / Fold change /veh 11762660_at / RFU VCAN (11757783_s_at) / Fold change /veh VCAN (11757783_s_at) / RFU DDX43 (11728927_at) / Fold change /veh DDX43 (11728927_at) / RFU KRT8 (11758188_x_at) / Fold change /veh KRT8 (11758188_x_at) / RFU NKD1 (11759106_at) / Fold change /veh NKD1 (11759106_at) / RFU SRD5A1 (11742802_a_at) / Fold change /veh SRD5A1 (11742802_a_at) / RFU TPSAB1 /// TPSB2 (11721975_s_at) / Fold change /veh TPSAB1 /// TPSB2 (11721975_s_at) / RFU GSTM3 (11746129_a_at) / Fold change /veh GSTM3 (11746129_a_at) / RFU IL23R (11737362_x_at) / Fold change /veh IL23R (11737362_x_at) / RFU TMEM51 (11727254_a_at) / Fold change /veh TMEM51 (11727254_a_at) / RFU PIWIL2 (11732686_x_at) / Fold change /veh PIWIL2 (11732686_x_at) / RFU ORM1 (11744905_x_at) / Fold change /veh ORM1 (11744905_x_at) / RFU CCDC152 (11743942_at) / Fold change /veh CCDC152 (11743942_at) / RFU ECM1 (11717891_a_at) / Fold change /veh ECM1 (11717891_a_at) / RFU IL23R (11748794_a_at) / Fold change /veh IL23R (11748794_a_at) / RFU TNFAIP8L3 (11732012_x_at) / Fold change /veh TNFAIP8L3 (11732012_x_at) / RFU MBOAT4 (11741988_at) / Fold change /veh MBOAT4 (11741988_at) / RFU 11764193_at / Fold change /veh 11764193_at / RFU TMEM53 (11763286_at) / Fold change /veh TMEM53 (11763286_at) / RFU MAGEB2 (11727129_at) / Fold change /veh MAGEB2 (11727129_at) / RFU TMEM200A (11744735_a_at) / Fold change /veh TMEM200A (11744735_a_at) / RFU CCDC152 (11751479_a_at) / Fold change /veh CCDC152 (11751479_a_at) / RFU FAM211A (11726209_a_at) / Fold change /veh FAM211A (11726209_a_at) / RFU RGS16 (11746705_a_at) / Fold change /veh RGS16 (11746705_a_at) / RFU VCAN (11755009_s_at) / Fold change /veh VCAN (11755009_s_at) / RFU RHOB (11743442_s_at) / Fold change /veh RHOB (11743442_s_at) / RFU RGS16 (11720943_a_at) / Fold change /veh RGS16 (11720943_a_at) / RFU RGS16 (11720944_at) / Fold change /veh RGS16 (11720944_at) / RFU, VPS4B / Fold change vs veh, VPS4B / RFU, CREB1 / Fold change vs veh, CREB1 / RFU, DNAJC13 / Fold change vs veh, DNAJC13 / RFU, GNAQ / Fold change vs veh, GNAQ / RFU, CDK5R1 / Fold change vs veh, CDK5R1 / RFU, ZRANB3 / Fold change vs veh, ZRANB3 / RFU, CUL4A / Fold change vs veh, CUL4A / RFU, CCNY / Fold change vs veh, CCNY / RFU, UFL1 / Fold change vs veh, UFL1 / RFU, COG3 / Fold change vs veh, COG3 / RFU, DIAPH2 / Fold change vs veh, DIAPH2 / RFU, SKA2 / Fold change vs veh, SKA2 / RFU, AFF3 / Fold change vs veh, AFF3 / RFU, LMF1 / Fold change vs veh, LMF1 / RFU, IPO11 / Fold change vs veh, IPO11 / RFU, DFFB / Fold change vs veh, DFFB / RFU, FOXP1 / Fold change vs veh, FOXP1 / RFU, CARD8 / Fold change vs veh, CARD8 / RFU, STRN3 / Fold change vs veh, STRN3 / RFU, ADK / Fold change vs veh, ADK / RFU, RASSF2 / Fold change vs veh, RASSF2 / RFU, WIPF1 / Fold change vs veh, WIPF1 / RFU, LARP1B / Fold change vs veh, LARP1B / RFU, RASA1 / Fold change vs veh, RASA1 / RFU, RB1 / Fold change vs veh, RB1 / RFU, PPFIA1 / Fold change vs veh, PPFIA1 / RFU, MAT2A / Fold change vs veh, MAT2A / RFU, CCT5 / Fold change vs veh, CCT5 / RFU, WDR92 / Fold change vs veh, WDR92 / RFU, CUX1 / Fold change vs veh, CUX1 / RFU, TTC7A / Fold change vs veh, TTC7A / RFU, TMEM135 / Fold change vs veh, TMEM135 / RFU, DEPTOR / Fold change vs veh, DEPTOR / RFU, CPM / Fold change vs veh, CPM / RFU, DNAJB6 / Fold change vs veh, DNAJB6 / RFU, CACNA2D3 / Fold change vs veh, CACNA2D3 / RFU, DTX4 / Fold change vs veh, DTX4 / RFU, TFCP2 / Fold change vs veh, TFCP2 / RFU, GMCL1 /// GMCL1P1 / Fold change vs veh, GMCL1 /// GMCL1P1 / RFU, AEBP2 / Fold change vs veh, AEBP2 / RFU, SNHG1 /// SNORD22 /// SNORD25 /// SNORD26 /// SNORD27 /// SNORD28 /// SNORD29 /// SNORD31 / Fold change vs veh, SNHG1 /// SNORD22 /// SNORD25 /// SNORD26 /// SNORD27 /// SNORD28 /// SNORD29 /// SNORD31 / Fold change (Aza/veh), C12orf56 (ProbeSet 11735607_a_at) / Fold change (ACY-1035/veh), C12orf56 (ProbeSet 11735607_a_at) / Fold change (Aza/veh), FGFR1OP (ProbeSet 11751329_s_at) / Fold change (ACY-1035/veh), FGFR1OP (ProbeSet 11751329_s_at) / Fold change (Aza/veh), VPS36 (ProbeSet 11739960_a_at) / Fold change (ACY-1035/veh), VPS36 (ProbeSet 11739960_a_at) / RFU SYPL1 (11715823_x_at) / Fold change /veh SYPL1 (11715823_x_at) / RFU IGFBP7 (11715501_s_at) / Fold change /veh IGFBP7 (11715501_s_at) / RFU REEP3 (11722064_at) / Fold change /veh REEP3 (11722064_at) / RFU IGLL1 (11728026_x_at) / Fold change /veh IGLL1 (11728026_x_at): dose or concentration left out as unconfirmed
Settings: ProbeSet 11721611_a_at; LIST D

Nc1ccc(-c2cccs2)cc1NC(=O)c1ccc2c(c1)cc(C1CC1)n2CCN1CCOCC1 [ACY-1035]
Fold change vs veh, IPO11: 0.84
